These results are taken from patent US20150320762A1, “TREATMENT OF PROLIFERATIVE DISEASES WITH PYRIMIDODIAZEPINONES” (Cyclacel limited, priority 2012, published 2015).

Data set [1] is described as follows: Mouse PK data for selected compounds of the invention. Conditions: dose 1 mg/kg; for AUC / Cmax: plasma. It is filed as in vivo. How it is done:
The plasma concentration is measured using standard LC-MS/MS analysis based on the following method. Calibration and control samples are prepared as follows from a 500 μg/mL solution of compound in methanol/DMSA 50/50 v/v. This stock solution is used to prepare diluted working standards of the test items with concentrations from 200 ng/ml to 500,000 ng/ml. The solutions are diluted with methanol and stored at +4° C. in glass vials when not in use. The working solutions are used to prepare calibration standards in control plasma, with a final concentration of between 10 ng/ml and 5000 ng/ml per 100 microlitres of plasma. These standards are prepared on day one of analysis and re-prepared as necessary on each analytical occasion. Internal standards are dissolved in methanol/DMSA 50/50 v/v and diluted to 1 μg/mL in acetonitrile for a working solution.
Plasma samples are extracted by the following method. Transfer 50 microlitres of each calibration, quality control and test sample to a 96-well mictrotitre plate. Add 200 microlitres of a 1 microgram per millilitre internal standard solution in acetonitrile to all samples except for a double blank. 200 microlitres of acetonitrile is added to the double blank. Samples are briefly vortex mixed, and centrifuged at 2128 g for 30 minutes. Recoverable supernatant is transferred to an appropriate well of a microtitre plate and extracts are evaporated with oxygen free nitrogen at a gas temperature of about 40° C. Extracts are reconstituted in 200 μL of mobile phase and mixed well. The plate is sealed with silicone-based pre-pierced web seal and used for LC-MS/MS analysis.
LC-MS/MS analysis can be performed using the following chromatography conditions.

The test system of data set [2] is BAC and ESCC cell lines versus the benign OE cell line (CPA). Nature of the data set: 96-well drug washout/outgrowth anti-proliferative assay (resazurin, day 6). It is filed as cell-based. The following applies: all timepoints. How it is done:
Tumour sensitivity towards Plk1 inhibitors was studied in a panel of oesophageal (OE) cell lines. The cell lines used were: a benign Barrett's (CPA), two Barrett's adenocarcinoma (OE19 and OE33; Sigma Aldrich), and two oesophageal squamous cell carcinoma cell lines (OE21, ECACC; and KYSE-410, ECACC).
The anti-proliferative effect of Plk1 inhibitors was studied in a 96-well format drug washout/outgrowth assay. Cells were seeded at 1.5-2.5×10^3 cells per well in 96-well plates and left to incubate overnight at 37° C., 5% CO2, before addition of a range of concentrations of each of the different Plk1 inhibitors. Cells were incubated with the compounds for various periods of time, ranging from 3 to 24 hours; media containing the compounds was then removed from the cells and replaced with drug-free media until the end of the assay. The cell viability was evaluated on day 6 using a standard resazurin-based assay according to manufacturer's instructions (AlamarBlue, AbD Serotec, Oxford, UK). The IC50 values were determined using IDBS software.

The conditions of data set [3]: mouse, dose 35 mg/kg, Rudolph et al.; cited from earlier work.

Where two headings read alike, the source gives them in different places.

In data set [1], `COc1cc(C(=O)N[C@H]2CC[C@H](N3CCN(C)CC3)CC2)ccc1Nc1ncc2c(n1)N(C1CCCC1)CC1(CC1)C(=O)N2C` [Compound A7, 4-(9′-cyclopentyl-5′-methyl-6′-oxo-5′,6′,8′,9′-tetrahydrospiro[cyclopropane-1,7′-pyrimido[4,5-b][1,4]diazepine]-2′-ylamino)-N-((trans)-4-(4-methylpiperazin-1-yl)cyclohexyl)-3-methoxybenzamide] yielded a Cl_obs of 40.75 mL/min/kg, an HL_Lambda_z of 1.97 h, a Vz_obs of 6.937 L/kg and an AUC of 377 ng·h/mL. In data set [1], this molecule yielded a Cmax of 453 ng/mL.

For the molecule `CC[C@@H]1C(=O)N(C)c2cnc(Nc3ccc(C(=O)NC4CCN(C)CC4)cc3OC)nc2N1C1CCCC1` [BI2536], the “differentiation between the cancerous and the benign cell lines” value in data set [2] is on record as “little or no differentiation”.

As for `COc1cc(C(=O)NC2CCN(C3CCOCC3)CC2)ccc1Nc1ncc2c(n1)N(C1CCCC1)CCC(=O)N2C` [Compound A13, 4-(9-cyclopentyl-5-methyl-6-oxo-6,7,8,9-tetrahydro-5H-pyrimido[4,5-b][1,4]diazepin-2-ylamino)-3-methoxy-N-[1-(tetrahydro-pyran-4-yl)-piperidin-4-yl]-benzamide], in data set [1], the Cl_obs amounted to 99.8 mL/min/kg, the HL_Lambda_z worked out at 0.78 h, the Vz_obs was determined as 6.713 L/kg and the AUC amounted to 164 ng·h/mL. Besides, the Cmax in data set [1] is 405 ng/mL.

With `CC[C@@H]1C(=O)N(C)c2cnc(Nc3ccc(C(=O)N[C@H]4CC[C@H](N5CCN(CC6CC6)CC5)CC4)cc3OC)nc2N1C(C)C` [BI6727], in data set [3], the Cl_obs was 10 mL/min/kg, the Cmax was 4390 ng/mL, the HL_Lambda_z was 46 h and the Vz_obs is 7.6 L/kg.

In data set [1], `COc1cc(C(=O)N[C@H]2CC[C@H](N3CCN(CC4CC4)CC3)CC2)ccc1Nc1ncc2c(n1)N(C1CCCC1)CC1(CC1)C(=O)N2C` [Compound A1, 4-(9′-cyclopentyl-5′-methyl-6′-oxo-5′,6′,8′,9′-tetrahydrospiro[cyclopropane-1,7′-pyrimido[4,5-b][1,4]diazepine]-2′-ylamino)-N-((trans)-4-(4-(cyclopropylmethyl)piperazin-1-yl)cyclohexyl)-3-methoxybenzamide] came in with a Cl_obs of 21.22 mL/min/kg, an HL_Lambda_z of 2.89 h, a Vz_obs of 5.304 L/kg and an area under the curve (AUC) of 631 ng·h/mL. In data set [1], this molecule returned a Cmax of 478 ng/mL.
